Data set [1] has as its system HMEC. The experiment in a line: cells. The settings on record: Homo sapiens.
Description: Antiproliferative activity against HMVEC
In data set [2] the target is T1, Methionine aminopeptidase 2 (Homo sapiens, UniProt P50579). The experiment in a line: Inhibition of MetAP2.
The target in data set [3] is T1, Methionine aminopeptidase 2. The experiment in a line: Inhibition of MetAP2 in presence of 40 mg/ml human serum albumin.
A short description of data set [4]: Protein binding in rat plasma at 10 uM at pH 7.4. In kind it is ADME, cell-free. Particulars: read-out: PPB (converted).
The target in data set [5] is Methionine aminopeptidase 1 (Homo sapiens, UniProt P53582). In words: Inhibition of MetAP1.
Data set [6] has as its target Methionine aminopeptidase (Pyrococcus furiosus (strain ATCC 43587 / DSM 3638 / JCM 8422 / Vc1), UniProt P56218). The experiment in a line: Inhibition of Pyrococcus furiosus MetAP.
The nature of data set [7]: Inhibition of AP. Also on record: species or system Homo sapiens.
Data set [8] concerns the target Xaa-Pro aminopeptidase 1 (Homo sapiens, UniProt Q9NQW7). In words: Inhibition of AP1.
For data set [9], the target named is Aminopeptidase N (Homo sapiens, UniProt P15144). In words: Inhibition of AP-M.

Each structure is given as a SMILES string. Where only a bound is given, the exact number is not on record here.

T1 sequence (P50579 whole entry): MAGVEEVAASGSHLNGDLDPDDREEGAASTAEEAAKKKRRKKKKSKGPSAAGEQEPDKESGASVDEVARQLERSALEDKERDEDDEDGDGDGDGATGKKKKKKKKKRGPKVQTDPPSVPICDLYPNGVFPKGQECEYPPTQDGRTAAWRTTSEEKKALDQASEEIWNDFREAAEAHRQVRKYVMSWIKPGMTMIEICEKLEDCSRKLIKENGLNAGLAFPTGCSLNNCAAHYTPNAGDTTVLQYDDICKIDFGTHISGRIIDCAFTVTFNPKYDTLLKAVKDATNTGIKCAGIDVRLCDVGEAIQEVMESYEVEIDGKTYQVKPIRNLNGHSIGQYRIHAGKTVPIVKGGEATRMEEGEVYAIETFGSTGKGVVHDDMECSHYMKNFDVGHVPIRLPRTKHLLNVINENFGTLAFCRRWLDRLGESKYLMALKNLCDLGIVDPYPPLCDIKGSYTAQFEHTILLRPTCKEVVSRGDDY
Sequence of Methionine aminopeptidase (P56218 whole entry): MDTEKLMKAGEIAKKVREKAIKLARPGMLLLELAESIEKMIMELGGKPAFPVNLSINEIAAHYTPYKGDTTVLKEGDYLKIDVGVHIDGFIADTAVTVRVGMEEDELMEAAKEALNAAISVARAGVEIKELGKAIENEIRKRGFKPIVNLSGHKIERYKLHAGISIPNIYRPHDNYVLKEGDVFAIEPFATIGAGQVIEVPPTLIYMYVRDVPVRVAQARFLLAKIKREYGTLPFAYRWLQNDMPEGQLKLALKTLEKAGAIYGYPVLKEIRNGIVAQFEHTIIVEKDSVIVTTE
Sequence of Xaa-Pro aminopeptidase 1 (Q9NQW7 whole entry): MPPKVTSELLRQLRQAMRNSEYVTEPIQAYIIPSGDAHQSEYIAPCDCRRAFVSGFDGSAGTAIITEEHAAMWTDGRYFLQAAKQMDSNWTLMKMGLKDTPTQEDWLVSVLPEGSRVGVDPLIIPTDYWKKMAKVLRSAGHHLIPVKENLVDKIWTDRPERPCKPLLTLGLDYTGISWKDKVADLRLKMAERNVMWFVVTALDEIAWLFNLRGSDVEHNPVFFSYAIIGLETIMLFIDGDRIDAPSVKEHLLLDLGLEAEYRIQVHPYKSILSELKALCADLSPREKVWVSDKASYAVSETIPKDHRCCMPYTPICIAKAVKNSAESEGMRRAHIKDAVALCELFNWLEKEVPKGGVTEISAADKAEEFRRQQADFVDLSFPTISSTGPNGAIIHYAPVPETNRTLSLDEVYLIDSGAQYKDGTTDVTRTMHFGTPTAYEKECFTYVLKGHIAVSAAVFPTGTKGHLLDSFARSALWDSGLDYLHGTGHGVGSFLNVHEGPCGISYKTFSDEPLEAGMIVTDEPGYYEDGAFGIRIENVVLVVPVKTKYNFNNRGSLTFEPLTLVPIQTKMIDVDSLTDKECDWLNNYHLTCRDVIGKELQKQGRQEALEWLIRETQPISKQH
Sequence of Aminopeptidase N (P15144 whole entry): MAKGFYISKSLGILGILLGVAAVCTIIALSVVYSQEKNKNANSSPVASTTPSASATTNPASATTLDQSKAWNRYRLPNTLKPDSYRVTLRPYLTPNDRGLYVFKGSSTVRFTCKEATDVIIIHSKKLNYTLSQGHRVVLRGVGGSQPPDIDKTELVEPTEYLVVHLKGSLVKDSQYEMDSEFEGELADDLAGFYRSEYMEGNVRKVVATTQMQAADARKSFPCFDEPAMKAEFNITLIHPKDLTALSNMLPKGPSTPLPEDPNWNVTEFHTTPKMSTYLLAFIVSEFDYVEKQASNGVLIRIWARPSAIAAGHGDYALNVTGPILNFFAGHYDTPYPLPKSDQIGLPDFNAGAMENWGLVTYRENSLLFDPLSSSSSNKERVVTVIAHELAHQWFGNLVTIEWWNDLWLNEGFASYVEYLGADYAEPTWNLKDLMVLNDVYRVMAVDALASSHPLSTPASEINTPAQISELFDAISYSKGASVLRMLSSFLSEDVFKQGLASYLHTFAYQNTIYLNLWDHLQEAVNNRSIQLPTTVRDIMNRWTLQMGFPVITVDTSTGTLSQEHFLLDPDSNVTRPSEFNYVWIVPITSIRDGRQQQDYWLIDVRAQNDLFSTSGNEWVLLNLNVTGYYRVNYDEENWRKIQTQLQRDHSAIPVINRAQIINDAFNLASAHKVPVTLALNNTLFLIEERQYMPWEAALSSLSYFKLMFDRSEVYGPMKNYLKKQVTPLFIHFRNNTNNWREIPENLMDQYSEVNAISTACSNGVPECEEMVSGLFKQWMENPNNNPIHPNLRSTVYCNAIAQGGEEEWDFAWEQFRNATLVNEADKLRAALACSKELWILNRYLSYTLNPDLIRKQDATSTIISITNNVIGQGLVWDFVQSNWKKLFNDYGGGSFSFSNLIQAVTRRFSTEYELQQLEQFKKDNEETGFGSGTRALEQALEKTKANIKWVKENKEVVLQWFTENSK

What is called IC50 is the midpoint of a concentration-inhibition curve. For the compound `CCCCc1ccc(NS(=O)(=O)c2ccccc2)c(C(=O)O)c1`, the IC50 in data set [1] came out at 100000 nM.

Compound `C[C@H]1CCCc2ccc(NS(=O)(=O)c3ccc(F)cc3)c(C(=O)O)c21` displayed an IC50 in data set [1] of 130 nM.

Regarding `O=C(O)c1cc(Br)ccc1NS(=O)(=O)c1cccc2nsnc12`, the half-maximal inhibitory concentration (IC50) in data set [2] is 3900 nM; in data set [3], above 100 µM; in [1], 2000 nM.

Take `Cc1ccc(NS(=O)(=O)c2ccc(Cl)cc2)c(C(=O)O)c1`: the fraction unbound at 10 µM in [4] was 0.019. Moreover, half-maximal inhibition in data set [1] (IC50) required 300 nM.

In [1], `CC1=CCCc2ccc(NS(=O)(=O)c3ccc(F)cc3)c(C(=O)O)c21` had an IC50 of 150 nM.

As for `O=C(O)c1c(NS(=O)(=O)c2ccc(F)cc2)ccc2c1CCCC2`, inhibition in data set [1] was half-maximal at 180 nM (IC50).

For `CCc1ccc(NS(=O)(=O)c2ccccc2)c(C(=O)O)c1`, the fraction unbound at 10 µM in data set [4] was 0.002. Also, in data set [1], the IC50 is 10000 nM.

`Cc1ccc(NS(=O)(=O)c2ccccc2)c(C(=O)O)c1`: the fraction unbound at 10 µM in data set [4] was 0.003. This compound also showed an IC50 in [1] of 100 nM.

Take `Cc1cc(C)c(NS(=O)(=O)c2ccccc2)c(C(=O)O)c1`: half-maximal inhibition in data set [1] (IC50) was put at 400 nM.

With `O=C(O)c1c(NS(=O)(=O)c2ccc(F)cc2)ccc2ccccc12`, the fraction unbound at 10 µM in data set [4] was 0.008. The same compound returned a half-inhibitory concentration (IC50) in data set [1] of 500 nM.

In data set [1], `O=C(O)c1cc(Br)ccc1NS(=O)(=O)c1ccc(Cl)cc1` showed a concentration for half-maximal inhibition (IC50) of 3000 nM.

`CCCc1ccc(NS(=O)(=O)c2ccccc2)c(C(=O)O)c1` yielded a half-inhibitory concentration (IC50) in data set [1] of 60000 nM.

Take `O=C(O)c1c(NS(=O)(=O)c2ccccc2)ccc2ccccc12`: the IC50 in [2] is 19 nM; in [3], 3.8 µM; in data set [5] it was 47 µM; in data set [6], above 100 µM; in data set [7] it was above 100 µM; in data set [8], above 100 µM. For the same compound, the IC50 was above 100 µM in data set [9] and 500 nM in data set [1]. In addition, in data set [4], the fraction unbound at 10 µM was 0.002.

The values above are taken from ChEMBL document CHEMBL1138906, “Development of sulfonamide compounds as potent methionine aminopeptidase type II inhibitors with antiproliferative properties” (Bioorg Med Chem Lett, 2006).
